ChEMBL document CHEMBL3272157, “Cephalosporin derivatives with 2- and 4-pyridone groups at carbon-3” (1979)
Values after ≈ are worked out from the molar mass of the structure shown. Active and inactive are the calls of the source. The calls are words filed in the database; no cut-off is given here.

Assays:
Staphylococcus aureus [1] = assay: In vitro antibacterial activity against Staphylococcus aureus assessed as growth inhibition after 17 hrs by serial two-fold dilution technique; format: functional
Staphylococcus aureus [2] = assay: In vitro antibacterial activity against benzylpenicillin-resistant Staphylococcus aureus assessed as growth inhibition after 17 hrs by serial two-fold dilution technique; format: functional
[3] = tested on: Staphylococcus epidermidis; assay: In vitro antibacterial activity against benzylpenicillin-resistant Staphylococcus epidermidis assessed as growth inhibition after 17 hrs by serial two-fold dilution technique; format: functional
[4] = tested on: Streptococcus pasteurianus; assay: In vitro antibacterial activity against Streptococcus pasteurianus assessed as growth inhibition after 17 hrs by serial two-fold dilution technique; format: functional
Streptococcus pyogenes [5] = assay: In vitro antibacterial activity against Streptococcus pyogenes assessed as growth inhibition after 17 hrs by serial two-fold dilution technique; format: functional
Escherichia coli [6] = assay: In vitro antibacterial activity against Escherichia coli assessed as growth inhibition after 17 hrs by serial two-fold dilution technique; format: functional
Klebsiella pneumoniae = assay: In vitro antibacterial activity against Klebsiella pneumoniae assessed as growth inhibition after 17 hrs by serial two-fold dilution technique; format: functional
Proteus mirabilis = assay: In vitro antibacterial activity against Proteus mirabilis assessed as growth inhibition after 17 hrs by serial two-fold dilution technique; format: functional
Salmonella [7] = assay: In vitro antibacterial activity against Salmonella schottmuelleri assessed as growth inhibition after 17 hrs by serial two-fold dilution technique; format: functional
Klebsiella aerogenes = assay: In vitro antibacterial activity against cephalosporins-resistant Enterobacter aerogenes assessed as growth inhibition after 17 hrs by serial two-fold dilution technique; format: functional, organism-based
Enterobacter cloacae = assay: In vitro antibacterial activity against cephalosporins-resistant Enterobacter cloacae assessed as growth inhibition after 17 hrs by serial two-fold dilution technique; format: functional, organism-based
Proteus vulgaris = assay: In vitro antibacterial activity against cephalosporins-resistant Proteus vulgaris assessed as growth inhibition after 17 hrs by serial two-fold dilution technique; format: functional, organism-based
Providencia stuartii = assay: In vitro antibacterial activity against cephalosporins-resistant Providencia stuartii assessed as growth inhibition after 17 hrs by serial two-fold dilution technique; format: functional, organism-based
Pseudomonas aeruginosa = assay: In vitro antibacterial activity against cephalosporins-resistant Pseudomonas aeruginosa assessed as growth inhibition after 17 hrs by serial two-fold dilution technique; format: functional, organism-based
Serratia marcescens = assay: In vitro antibacterial activity against cephalosporins-resistant Serratia marcescens assessed as growth inhibition after 17 hrs by serial two-fold dilution technique; format: functional, organism-based
Streptococcus pyogenes [8] = assay: In vivo antibacterial activity against Streptococcus pyogenes infected in po dosed albino CD-1 mouse assessed as protection against bacterial infection by measuring host survival administered at 1 hr and 4 hrs after infection; format: functional
Streptococcus pyogenes [9] = assay: In vivo antibacterial activity against Streptococcus pyogenes infected in sc dosed albino CD-1 mouse assessed as protection against bacterial infection by measuring host survival administered at 1 hr and 4 hrs after infection; format: functional
[10] = tested on: Streptococcus pasteurianus; assay: In vivo antibacterial activity against Streptococcus pasteurianus infected in sc dosed albino CD-1 mouse assessed as protection against bacterial infection by measuring host survival administered at 1 hr and 4 hrs after infection; format: functional
Salmonella [11] = assay: In vivo antibacterial activity against Salmonella schottmuelleri infected in sc dosed albino CD-1 mouse assessed as protection against bacterial infection by measuring host survival administered at 1 hr and 4 hrs after infection; format: functional
Streptococcus pneumoniae = assay: In vitro antibacterial activity against Streptococcus pneumoniae assessed as growth inhibition after 17 hrs by serial two-fold dilution technique; format: functional
Escherichia coli [12] = assay: In vivo antibacterial activity against Escherichia coli infected in sc dosed albino CD-1 mouse assessed as protection against bacterial infection by measuring host survival administered at 1 hr and 4 hrs after infection; format: functional

| Structure (SMILES) | MIC (Staphylococcus aureus [1]) [µg/mL] | MIC (Staphylococcus aureus [2]) [µg/mL] | MIC [3] [µg/mL] | MIC [4] [µg/mL] | MIC (Streptococcus pyogenes [5]) [µg/mL] | MIC (Escherichia coli [6]) [µg/mL] | MIC (Klebsiella pneumoniae) [µg/mL] | MIC (Proteus mirabilis) [µg/mL] | MIC (Salmonella [7]) [µg/mL] | growth inhibition (GI) (Klebsiella aerogenes) | growth inhibition (GI) (Enterobacter cloacae) | growth inhibition (GI) (Proteus vulgaris) | growth inhibition (GI) (Providencia stuartii) | growth inhibition (GI) (Pseudomonas aeruginosa) | growth inhibition (GI) (Serratia marcescens) | ED50 (Streptococcus pyogenes [8]) [mg/kg] | ED50 (Streptococcus pyogenes [9]) [mg/kg] | ED50 (Salmonella [11]) [mg/kg] | MIC (Streptococcus pneumoniae) [µg/mL] | ED50 (Escherichia coli [12]) [mg/kg] | also measured |
| --- | --- | --- | --- | --- | --- | --- | --- | --- | --- | --- | --- | --- | --- | --- | --- | --- | --- | --- | --- | --- | --- |
| N[C@@H](C(=O)N[C@@H]1C(=O)N2C(C(=O)O)=C(Cn3ccccc3=O)CS[C@H]12)c1ccccc1 | 1.6 (≈ 3.63 µM) | 6.2 (≈ 14.1 µM) | 6.2 (≈ 14.1 µM) | 0.2 (≈ 0.454 µM) | 0.8 (≈ 1.82 µM) | 25 (≈ 56.8 µM) | 6.2 (≈ 14.1 µM) | > 100 | 12.5 (≈ 28.4 µM) | inactive | inactive | inactive | inactive | inactive | inactive | > 8 | > 0.5 | 10 | 50 (≈ 114 µM) | 8.4 | ED50 [10]: 14 mg/kg |
| CC1=C(C(=O)O)N2C(=O)[C@@H](NC(=O)[C@H](N)c3ccccc3)[C@H]2SC1 [CEPHALEXIN ANHYDROUS] | 1.6 (≈ 4.61 µM) | 6.2 (≈ 17.8 µM) | 12.5 (≈ 36 µM) | 1.6 (≈ 4.61 µM) | 0.8 (≈ 2.3 µM) | 6.2 (≈ 17.8 µM) | 3.1 (≈ 8.92 µM) | 25 (≈ 72 µM) | 6.2 (≈ 17.8 µM) |  |  |  |  |  |  | 1.2 | 3.4 | 8.2 | > 100 | 5.6 | ED50 [10]: 38.7 mg/kg |
| N[C@@H](C(=O)N[C@@H]1C(=O)N2C(C(=O)O)=C(Cn3ccc(=O)cc3)CS[C@H]12)c1ccccc1 | 3.1 (≈ 7.04 µM) | 50 (≈ 114 µM) | 25 (≈ 56.8 µM) | 0.4 (≈ 0.908 µM) | 1.6 (≈ 3.63 µM) | 12.5 (≈ 28.4 µM) | 12.5 (≈ 28.4 µM) | 50 (≈ 114 µM) | 12.5 (≈ 28.4 µM) | inactive | inactive | inactive | inactive | inactive | inactive | > 8 | > 0.5 | 5 | 100 (≈ 227 µM) | 4.6 |  |
